Results on four molecules are retold here after patent US20230203554A1, “PROCESS FOR REDUCING UNWANTED CULTURE BYPRODUCTS IN CELL CULTURE MEDIUM” (SAMSUNG BIOEPIS CO., LTD., priority 2016, published 2023).

The cell viability is the share of living cells, or the viability signal relative to a control. High values mean less harm to the cells, low ones more harm to the cells.

In assay [1] the test system is CHO cells. Nature of the assay: Cell viability, Trypan blue exclusion method (Cedex HiRes), Examples 3 and 4. The class given is cell-based, Chinese hamster. The following applies: for cell viability: 14 days after the culture. The procedure:
(§1) Cells were prepared using the same method as that used in Example 1, and a glutamine-free and 2×HT-containing medium was added to the prepared cells. 4 mM of uridine (catalog No.: U3003, Sigma) or 8 mM of galactose (Catalog No.: G0750, Sigma) was added to the medium. The cells were cultured at 37° C. and 5% CO2, and the medium was replaced with a fresh medium every two days. Cells cultured in a glutamine-free medium were used as a negative control.
(§2) After about 14 days, viable cell density and cell viability were measured using a Cedex HiRes analyzer (Model No.: 05650216001, Roche) through a scanner-based imaging method and a Trypan blue exclusion method. The viable cell density (CHO cells/ml) of cells cultured in the presence of uridine and in the presence of galactose is illustrated in FIGS. 5A and 5B, respectively. In addition, the cell viability (%) of cells cultured in the presence of uridine and in the presence of galactose is illustrated in FIGS. 6A and 6B, respectively.
Cells were prepared using the same method as that used in Example 1, and a glutamine-free and 2×HT-containing medium was added to the prepared cells. 1 mM of magnesium (Catalog No.: M4880, Sigma) was added to the medium. The cells were cultured at 37° C. and 5% CO2, and the medium was replaced with a fresh medium every two days. Cells cultured in a glutamine-free medium were used as a negative control.
After about 14 days, viable cell density and cell viability were measured using a Cedex HiRes analyzer (Model No.: 05650216001, Roche) through a scanner-based imaging method and a Trypan blue exclusion method, respectively. The viable cell density (CHO cells/ml) and cell viability of the cells cultured in the presence of magnesium are illustrated in FIGS. 7 and 8, respectively.

In assay [2] the test system is CHO cells. As to the kind of experiment: Viable cell density, scanner-based imaging (Cedex HiRes), Examples 3 and 4. On the set-up: species or system Chinese hamster. The following applies: 8 mM galactose added to glutamine-free 2×HT medium; FIG. 5B. How it is done: as §1, §2
Cells were prepared using the same method as that used in Example 1, and a glutamine-free and 2×HT-containing medium was added to the prepared cells. […]
After about 14 days, viable cell density and cell viability were measured using a Cedex HiRes analyzer (Model No.: 05650216001, Roche) through a scanner-based imaging method and a Trypan blue exclusion method, respectively. […]

Assay [3] deals with Chinese hamster ovary (CHO) cells. The following applies: 8 mM ammonia; cited from earlier work.

In assay [1] (1 mM magnesium added to glutamine-free 2×HT medium), `[Mg+2]` [magnesium] displayed a cell viability of 91.5%.

As to `O=c1ccn([C@@H]2O[C@H](CO)[C@@H](O)[C@H]2O)c(=O)[nH]1` [uridine], in assay [1] (4 mM uridine added to glutamine-free 2×HT medium), the cell viability is listed as 94.6%.

As for `O=C[C@H](O)[C@@H](O)[C@@H](O)[C@H](O)CO` [galactose, reference compound], in assay [2], the “viable cell density, versus medium without galactose” value is “no significant difference”. For the same molecule, the “cell viability (printed: viable cell density), versus medium without galactose” value in assay [1] (8 mM galactose added to glutamine-free 2×HT medium, FIG. 6B) is reported as “no significant difference”.

Turning to `N` [ammonia], the “inhibition of cell growth” value in assay [3] is on record as 50%.
